Reference: US20250049036A1 (priority 2021, published 2025)

Key:
Corynespora cassiicola = Corynespora cassiicola (leaf spot of tomato) mycelial radial growth on potato dextrose agar; type: cell-based; details: 168 h, 25° C., seven days, read-out: control compared to the untreated check
Description: (§1) The compounds were dissolved in 0.3% dimethyl sulfoxide and then added to potato dextrose agar medium just prior to dispensing it into petri dishes. 5 mL medium, with the compound in the desired concentration, was dispensed into 60 mm sterile petri-plates. After solidification, each plate was seeded with a 5 mm size mycelial disc taken from the periphery of an actively growing virulent culture plate. The plates were incubated in growth chambers at 25° C. temperature and 70% relative humidity for seven days and the radial growth was measured and compared to the one of the untreated control.

Alternaria solani = Alternaria solani (early blight of tomato/potato) mycelial radial growth on potato dextrose agar; type: cell-based; details: 168 h, 25° C., seven days, read-out: control compared to the untreated check
Description: as §1, with “60%” for “70%”

Phakopsora pachyrhizi = Phakopsora pachyrhizi test on soybean, preventive, greenhouse; type: in vivo; details: preventive spray on soybean, inoculated one day after treatment, read-out: control (efficacy, disease severity) compared to the untreated check
How it was run: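 Preventive protocol: plants inoculated with a 2×10^5 P. pachyrhizi conidial suspension one day after spray application at the stated rate, then incubated at 22-24 °C and 80-90% RH. Compound was applied from 2% DMSO/acetone diluted in emulsified water.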

Colletotrichum capsici = Colletotrichum capsici (anthracnose) mycelial radial growth on potato dextrose agar; type: cell-based; details: Colletotrichum truncatum, 168 h, 25° C., seven days, read-out: control compared to the untreated check
How it was run: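 Compounds in 0.3% DMSO were mixed into potato dextrose agar, and each plate was seeded with a 5 mm mycelial disc from an actively growing culture. Plates were incubated at 25° C and 60% relative humidity for seven days. Radial growth was compared with untreated control.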

Pyricularia oryzae = assay: microbe, parasite or virus in culture; type: cell-based; details: 168 h, read-out: control compared to the untreated check
Parastagonospora nodorum = Parastagonospora nodorum (PARANO) spore growth inhibition in liquid medium, 96-well microtiter plate, OD 600; type: cell-based; details: spore suspension in PDB liquid medium, 18° C., 5-6 days, OD at 600, read-out: control compared to the untreated check
How it was run: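 Read-out is percent growth inhibition from OD at 600 after 5-6 days at 18° C. Compounds, dissolved in DMSO, were diluted in potato dextrose broth and combined in equal volume with a 10^5 spores/ml suspension of PARANO.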

Venturia Inequalis = assay: Venturia inequalis (VENTIN) spore growth inhibition in liquid medium, 96-well microtiter plate, OD 600; type: cell-based; details: spore suspension in PDB liquid medium, 18° C., 15-18 days, OD at 600, read-out: control compared to the untreated check
How it was run: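 Venturia inequalis spores (10^5 spores/ml suspension) were grown in potato dextrose broth with test compounds dissolved in DMSO, mixing equal volumes of compound solution and spore suspension. Plates were incubated at 18 °C for 15–18 days. Growth was read as OD600 and converted to percent inhibition.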

Botrytis cinerea [1] = assay: Botrytis cinerea test on tomato, preventive, greenhouse; type: in vivo; details: preventive spray on bean/chili plants (heading: tomato), inoculated one day after treatment, read-out: control (efficacy, disease severity) compared to the untreated check
Fusarium culmorum = Fusarium culmorum test on wheat, preventive, greenhouse; type: in vivo; details: preventive spray on wheat, inoculated one day after treatment, read-out: control (efficacy, disease severity) compared to the untreated check
Description: The respective compound was dissolved in 2% dimethyl sulfoxide/acetone and then mixed with water containing an emulsifier to a calibrated spray volume of 30 mL. Each spray solution was poured into a spray bottle for further application.
To test the preventive activity of a compound, healthy young wheat plants, raised in the greenhouse, were sprayed with the active compound preparation at the stated application rate inside the spray cabinets using hollow cone nozzles. One day after the treatment, the plants were inoculated with a spore suspension containing 2×10^6 Fusarium culmorum inoculum. The inoculated plants were then kept in a greenhouse chamber at 24° C. temperature and 80-90% relative humidity for disease expression.
A visual assessment of the compound's performance was carried out by rating the disease severity (0 100% scale) on treated plants 3, 7, 10 and 15 days after application. Efficacy (% control) of the compound was calculated by comparing the disease rating in the treatment with the one of the untreated control. The treated plants were also assessed for plant damage by recording symptoms like necrosis, chlorosis and stunting.

Botrytis cinerea [2] = assay: Botrytis cinerea liq. (BOTRCI) spore growth inhibition in liquid medium, 96-well microtiter plate, OD 405 nm; type: cell-based; details: spore suspension in YBA liquid medium, 22° C., 5-6 days, OD at 405 nm, read-out: control compared to the untreated check
How it was run: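 Spore suspension of B. cinerea (10^4 spores/ml) in YBA liquid medium mixed 1:1 with compound diluted from DMSO. Incubated at 22° C. for 5-6 days. Growth read as OD 405 nm; percent inhibition derived from treatment, untreated-control and blank readings.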

Phytophthora infestans [3] = assay: whole plant or invertebrate; type: in vivo, Phytophthora infestans on tomato; details: in Solanum lycopersicum, read-out: control (efficacy, disease severity) compared to the untreated check
Botrytis cinerea [4] = assay: Botrytis cinerea (gray mold) mycelial radial growth on potato dextrose agar; type: cell-based; details: 168 h, 22° C., seven days, read-out: control compared to the untreated check
How it was run: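 Compounds in 0.3% DMSO were mixed into potato dextrose agar, and plates were seeded with 5 mm mycelial discs from actively growing virulent culture. After seven days at 22 °C and 90% relative humidity, radial growth was measured relative to untreated control.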

Phytophthora infestans [5] = assay: microbe, parasite or virus in culture; type: cell-based; details: 168 h, read-out: control compared to the untreated check

C=C(C)CC(C)(Cc1ccccc1F)NC(=O)c1cnc2ccsc2c1 (centres unmarked) [Compound 129, N-(1-(2-fluorophenyl)-2,4-dimethylpent-4-en-2-yl)thieno[3,2-b] pyridine-6-carboxamide]
≥ 70%: inhibition of growth at 300 ppm (Corynespora cassiicola) | inhibition of growth at 300 ppm (Alternaria solani) | pest or weed control at 500 ppm (Phakopsora pachyrhizi) | inhibition of growth at 300 ppm (Colletotrichum capsici)

CC(C)CC(C)(Cc1ccccc1)NC(=O)c1cnc2c(c1)CCCC2 (centres unmarked) [Compound 44, N-(2,4-dimethyl-1-phenylpentan-2-yl)-5,6,7,8-tetrahydroquinoline-3-carboxamide]
≥ 70%: pest or weed control at 500 ppm (Phakopsora pachyrhizi) | inhibition of growth at 300 ppm (Colletotrichum capsici) | inhibition of growth at 300 ppm (Pyricularia oryzae) | inhibition of growth at 300 ppm (Parastagonospora nodorum) | inhibition of growth at 300 ppm (Venturia Inequalis) | pest or weed control at 500 ppm (Botrytis cinerea [1]) | pest or weed control at 500 ppm (Fusarium culmorum)

Cn1ccc2cc(C(=O)NC(C)(C)Cc3ccc(Cl)cc3)cnc21 [Compound 43, N-(1-(4-chlorophenyl)-2-methylpropan-2-yl)-1-methyl-1H-pyrrolo[2,3-b]pyridine-5-carboxamide]
≥ 70%: inhibition of growth at 300 ppm (Corynespora cassiicola) | pest or weed control at 500 ppm (Phakopsora pachyrhizi) | inhibition of growth at 300 ppm (Pyricularia oryzae) | inhibition of growth at 300 ppm (Parastagonospora nodorum)

CCC(C)(Cc1ccccc1)NC(=O)c1cnc2c(ccn2C)c1 (centres unmarked) [Compound 6, 1-methyl-N-(2-methyl-1-phenylbutan-2-yl)-1H-pyrrolo[2,3-b] pyridine-5-carboxamide]
≥ 70%: inhibition of growth at 300 ppm (Botrytis cinerea [2]) | inhibition of growth at 300 ppm (Corynespora cassiicola) | inhibition of growth at 300 ppm (Alternaria solani) | inhibition of growth at 300 ppm (Colletotrichum capsici) | inhibition of growth at 300 ppm (Parastagonospora nodorum)

Cc1cc(F)ccc1C(=O)OCC(C)(C)NC(=O)c1cnc2c(ccn2C)c1 [Compound 125, 2-methyl-2-(1-methyl-1H-pyrrolo[2,3-b]pyridine-5-carboxamido)propyl 4-fluoro-2-methylbenzoate]
≥ 70%: inhibition of growth at 300 ppm (Corynespora cassiicola) | pest or weed control at 500 ppm (Phakopsora pachyrhizi) | pest or weed control at 500 ppm (Botrytis cinerea [1])

CC(C)CC(C)(Cc1ccccc1)NC(=O)c1cnc2c(c1)CCC2 (centres unmarked) [Compound 62, N-(2,4-dimethyl-1-phenylpentan-2-yl)-6,7-dihydro-5H-cyclopenta[b]pyridine-3-carboxamide]
≥ 70%: pest or weed control at 500 ppm (Phakopsora pachyrhizi) | inhibition of growth at 300 ppm (Colletotrichum capsici) | pest or weed control at 500 ppm (Phytophthora infestans [3]) | inhibition of growth at 300 ppm (Venturia Inequalis) | pest or weed control at 500 ppm (Botrytis cinerea [1]) | pest or weed control at 500 ppm (Fusarium culmorum)

Cc1cc2cc(C(=O)NC(C)(C)Cc3ccccc3)cnc2n1C [Compound 99, 1,2-dimethyl-N-(2-methyl-1-phenylpropan-2-yl)-1H-pyrrolo[2,3-b] pyridine-5-carboxamide]
≥ 70%: inhibition of growth at 300 ppm (Alternaria solani) | pest or weed control at 500 ppm (Phakopsora pachyrhizi) | inhibition of growth at 300 ppm (Colletotrichum capsici) | inhibition of growth at 300 ppm (Pyricularia oryzae) | inhibition of growth at 300 ppm (Parastagonospora nodorum) | pest or weed control at 500 ppm (Fusarium culmorum)

Cc1ccc(CC(C)(C)NC(=O)c2cnc3c(ccn3C)c2)cc1 [Compound 50, 1-methyl-N-(2-methyl-1-(p-tolyl)propan-2-yl)-1H-pyrrolo[2,3-b] pyridine-5-carboxamide]
≥ 70%: inhibition of growth at 300 ppm (Botrytis cinerea [2]) | inhibition of growth at 300 ppm (Alternaria solani) | inhibition of growth at 300 ppm (Botrytis cinerea [4]) | pest or weed control at 500 ppm (Phakopsora pachyrhizi) | inhibition of growth at 300 ppm (Colletotrichum capsici) | inhibition of growth at 300 ppm (Pyricularia oryzae) | inhibition of growth at 300 ppm (Parastagonospora nodorum) | pest or weed control at 500 ppm (Fusarium culmorum)

CC(C)CC(C)(Cc1ccccc1)NC(=O)c1cnc2c(c1)OCCN2C (centres unmarked) [Compound 81, N-(2,4-dimethyl-1-phenylpentan-2-yl)-4-methyl-3,4-dihydro-2H-pyrido[3,2-b] [1,4]oxazine-7-carboxamide]
≥ 70%: inhibition of growth at 300 ppm (Colletotrichum capsici) | inhibition of growth at 300 ppm (Pyricularia oryzae) | inhibition of growth at 300 ppm (Parastagonospora nodorum) | pest or weed control at 500 ppm (Phytophthora infestans [3]) | inhibition of growth at 300 ppm (Venturia Inequalis) | pest or weed control at 500 ppm (Botrytis cinerea [1]) | pest or weed control at 500 ppm (Fusarium culmorum)

CC(C)(C)NC(=O)c1cnc2ccsc2c1 [Compound 107, N-(tert-butyl)thieno[3,2-b] pyridine-6-carboxamide]
≥ 70%: inhibition of growth at 300 ppm (Corynespora cassiicola) | pest or weed control at 500 ppm (Phakopsora pachyrhizi) | inhibition of growth at 300 ppm (Venturia Inequalis)

CC(C)(Cc1ccccc1)NC(=O)c1cnc2c(c1)CCC2 [Compound 67, N-(2-methyl-1-phenylpropan-2-yl)-6,7-dihydro-5H-cyclopenta[b]pyridine-3-carboxamide]
≥ 70%: inhibition of growth at 300 ppm (Botrytis cinerea [2]) | inhibition of growth at 300 ppm (Botrytis cinerea [4]) | pest or weed control at 500 ppm (Phakopsora pachyrhizi) | inhibition of growth at 300 ppm (Parastagonospora nodorum) | pest or weed control at 500 ppm (Phytophthora infestans [3]) | inhibition of growth at 300 ppm (Venturia Inequalis) | pest or weed control at 500 ppm (Botrytis cinerea [1]) | pest or weed control at 500 ppm (Fusarium culmorum)

CC(C)(NC(=O)c1cnc2ccsc2c1)C(F)(F)F [Compound 109, N-(1,1,1-trifluoro-2-methylpropan-2-yl)thieno[3,2-b] pyridine-6-carboxamide]
≥ 70%: inhibition of growth at 300 ppm (Botrytis cinerea [2]) | inhibition of growth at 300 ppm (Phytophthora infestans [5]) | inhibition of growth at 300 ppm (Corynespora cassiicola) | inhibition of growth at 300 ppm (Alternaria solani) | inhibition of growth at 300 ppm (Botrytis cinerea [4]) | inhibition of growth at 300 ppm (Pyricularia oryzae) | inhibition of growth at 300 ppm (Parastagonospora nodorum)

Cc1ccc(CC(C)(C)NC(=O)c2cnc3c(c2)cc(C)n3C)cc1 [Compound 102, 1,2-dimethyl-N-(2-methyl-1-(p-tolyl)propan-2-yl)-1H-pyrrolo[2,3-b]pyridine-5-carboxamide]
≥ 70%: pest or weed control at 500 ppm (Phakopsora pachyrhizi) | inhibition of growth at 300 ppm (Colletotrichum capsici) | inhibition of growth at 300 ppm (Parastagonospora nodorum) | inhibition of growth at 300 ppm (Venturia Inequalis) | pest or weed control at 500 ppm (Botrytis cinerea [1]) | pest or weed control at 500 ppm (Fusarium culmorum)

CC(c1ccccc1F)C(C)(C)NC(=O)c1cnc2c(c1)c(Br)cn2C (centres unmarked) [Compound 63, 3-bromo-N-(3-(2-fluorophenyl)-2-methylbutan-2-yl)-1-methyl-1H-pyrrolo[2,3-b]pyridine-5-carboxamide]
≥ 70%: inhibition of growth at 300 ppm (Botrytis cinerea [2]) | inhibition of growth at 300 ppm (Botrytis cinerea [4]) | pest or weed control at 500 ppm (Phakopsora pachyrhizi) | inhibition of growth at 300 ppm (Pyricularia oryzae) | inhibition of growth at 300 ppm (Parastagonospora nodorum) | pest or weed control at 500 ppm (Phytophthora infestans [3]) | inhibition of growth at 300 ppm (Venturia Inequalis) | pest or weed control at 500 ppm (Botrytis cinerea [1]) | pest or weed control at 500 ppm (Fusarium culmorum)
